AC50 data for 81 compounds are collected here from PubChem BioAssay AID1259332 (Broad Institute, 2017).

In general, AC50 refers to the midpoint of the concentration-response curve, whichever way the signal moves.

Values joined by “and” are separate entries in the source; they are usually repeats but may differ in a detail not shown here. Equal values may be shown once. Active and inactive are the calls of the source. No rule for the calls is given here.

The test system of this experiment is B cell line, CD40 signaling inhibition reporter. Briefly: inhibitors of CD40 signaling, dose response, B cell lineage (AID 1259332).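 Also: cells stimulated with CD40 ligand tCD40L.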
On to `CCc1cnc(N2[C@H](C#N)[C@H](c3ccc(C#Cc4ccccc4F)cc3)[C@H]2CO)s1`, for which the AC50 was 9.09 µM. Take `C[C@@H]1CN([C@@H](C)CO)C(=O)c2c(c3ccccc3n2C)-c2ccccc2CO[C@@H]1CN(C)Cc1cccc(C(F)(F)F)c1`: the AC50 is 7.08 µM.

Regarding `CC12CCC3C(CCC4(O)CC(O)CCC34C=NO)C1(O)CCC2C1=COC(=O)C1` (stereo unspecified), the AC50 was 0.586 µM. As for `CC1CC(C)C(=NNC(N)=O)C(C(O)CC2CCC(=O)NC2=O)C1` (stereo unspecified), the AC50 was 0.241 µM. Turning to `Cc1noc(C)c1S(=O)(=O)N(C)C[C@@H]1OCc2ccccc2-c2c(n(C)c3ccccc23)C(=O)N([C@@H](C)CO)C[C@@H]1C`, the AC50 is 11.3 µM. For `C[C@H]1CN([C@@H](C)CO)C(=O)c2c(c3ccccc3n2C)-c2ccccc2CO[C@@H]1CN(C)S(=O)(=O)c1ccc([N+](=O)[O-])cc1`, the AC50 was > 20 µM (inactive). As for `COc1ccc2c3c(n(C)c2c1)[C@H](CO)N(C(=O)Nc1ccc(F)cc1)CC31CCN(C(=O)Nc2ccc(F)cc2F)CC1`, the AC50 is > 7 µM (inactive).

Consider `CCC(C)(O)C(=O)OC1C(=O)OC2CC3C(C)=CC(=O)C(O)C3(C)C3C4(O)OCC23C1C(C)C4O` (stereo unspecified), for which the AC50 is 0.0299 µM. Under `O=C1CC(c2ccc3c(c2)OCO3)Sc2nc3ccccc3n21` (stereo unspecified) stands 8.89 µM. Consider `Cc1cccc(-c2ccc(C3[C@@H]4CN(C(=O)Nc5ccc(C(F)(F)F)cc5)C[C@H]3N4)cc2)c1` (stereo partly specified), for which the AC50 was 7.37 µM. With `CC1CCOC(=O)C=CC=CC(=O)OC2CC3OC4C5OC5(C)C(O)CC4(COC(=O)C1O)C2(C)C31CO1` (stereo unspecified), the AC50 was 0.0446 µM.

For the compound `CC(C)=CCc1c2c(c3occ(-c4ccc(O)c(O)c4)c(=O)c3c1O)C=CC(C)(C)O2`, the AC50 is 4.31 µM.

Turning to `O=C(Cc1ccccc1)N1CC[C@@H]2[C@H]1c1cc(C#Cc3cccc(F)c3)ccc1N[C@@H]2CO`, the AC50 is 5.19 µM. On to `Cc1noc(C)c1S(=O)(=O)N(C)C[C@H]1OCc2ccccc2-c2c(n(C)c3ccccc23)C(=O)N([C@@H](C)CO)C[C@H]1C`, for which the AC50 is 11.2 µM. For `COC(=O)C1=C(C)NC(C)=C(C(=O)OCCCN2CCC(c3ccccc3)(c3ccccc3)CC2)[C@H]1c1cccc([N+](=O)[O-])c1`, the AC50 was 11.4 µM.

With `COc1ccc(/C=C/C(=O)Nc2ccccc2C(=O)O)cc1OC`, the AC50 is 6.12 µM. As for `N#Cc1cccc(-c2ccc([C@@H]3[C@@H]4CN(S(=O)(=O)c5ccc(-c6ccccc6)cc5)C[C@H]3N4)cc2)c1`, the AC50 was > 20 µM (inactive).

`CCCCCCCCCCCCCCCC[n+]1ccccc1`: the AC50 is 0.266 µM. As for `C=C1CC(Cn2cc(Br)c(=O)[nH]c2=O)(c2ccc(-c3ccccc3)cc2)OC1=O` (stereo unspecified), the AC50 was 1.07 µM. Consider `CC(C)(C)c1cc(C=C(C#N)C#N)cc(C(C)(C)C)c1O`, for which the AC50 was 0.524 µM. In the case of `CC(C)OC(=O)c1cn(Cc2c(F)cccc2F)c2sc(-c3ccc(NC(=O)C(C)C)cc3)c(CN(C)Cc3ccccc3)c2c1=O`, the AC50 is > 20 µM (inactive). As to `CC(C)CC#Cc1ccc([C@@H]2[C@H]3CN(C(=O)Nc4ccccc4)CCCCN3[C@H]2CO)cc1`, the AC50 was 9.52 µM. Under `CC1CC(C)(C)Nc2ccc(OC(=O)c3ccco3)cc21` (stereo unspecified) stands 3.23 µM. Take `N#CC(C#N)=NNc1ccc(OC(F)(F)F)cc1`: the AC50 was 3.97 µM. On to `N#C[C@@H]1[C@H](c2ccc(C#Cc3ccc(F)cc3)cc2)[C@@H](CO)N1C(=O)C1CCC1`, for which the AC50 was 4.71 µM. The same measure for `CC1=NNC(=O)C1Br` (stereo unspecified): 7.86 µM; for `N#C[C@@H]1[C@H](c2ccc(C#Cc3ccccc3F)cc2)[C@@H](CO)N1C(=O)C1CC1`: 1.59 µM; for `COCC(=O)N1[C@H](C#N)[C@H](c2ccc(C#Cc3ccccc3F)cc2)[C@H]1CO`: 0.856 µM. Regarding `CC=Cc1cc2c(c(=O)o1)C(=O)C(O)C(C)O2` (stereo unspecified), the AC50 is > 20 µM (inactive). Under `O=C1NC2c3c(I)sc(I)c3C(=O)C2O1` (stereo unspecified) stands 3.2 µM. Under `N#Cc1cccc(-c2ccc(C3[C@H]4CNC[C@@H]3N4Cc3ccc4c(c3)OCO4)cc2)c1` (stereo partly specified) stands > 20 µM (inactive); under `CCOc1ccc(OCc2cccc(C(=O)N3CCOCC3)c2)cc1`, 2.92 µM. For `COC1=CC(=O)c2c(ccc3ncnc(N)c23)C1=O`, the AC50 was 1.66 µM. On to `O=C(NCCc1ccccc1)c1ccc2nccnc2c1`, for which the AC50 is 6.02 µM. With `Nc1ccc(-c2cccc3c(=O)cc(N4CCOCC4)oc23)cc1`, the AC50 is 10.9 µM. As for `C[C@@H]1CN([C@@H](C)CO)C(=O)c2ccccc2-c2ccccc2CO[C@H]1CN(C)Cc1ccccc1C(F)(F)F`, the AC50 was 8.01 µM. Consider `N#C[C@H]1N[C@H](CO)[C@H]1c1ccc(C#CC2CCCC2)cc1`, for which the AC50 was 6.27 µM. For `O=C(C1CCOCC1)N1CC(=O)N2[C@H](C1)[C@H](c1ccc(C#CCc3ccccc3)cc1)[C@@H]2CO`, the AC50 is 1.86 µM. As to `O=C(Nc1ccccc1)N1CC(=O)N2[C@H](CO)[C@@H](c3ccc(C#CC4CCCCC4)cc3)[C@H]2C1`, the AC50 is 11 µM. On to `Cc1ccc(S(=O)(=O)CCC(=O)N(CCCN2CCOCC2)c2nc3ccccc3s2)cc1`, for which the AC50 is 8.01 µM. Take `C[C@H]1CN([C@@H](C)CO)C(=O)Cc2cc(NS(=O)(=O)c3cccs3)ccc2O[C@@H]1CN(C)Cc1ccc(Cl)c(Cl)c1`: the AC50 is 5.83 µM. Regarding `COc1c(O)cc2oc3cc(O)c(CC=C(C)C)c(O)c3c(=O)c2c1CC=C(C)C`, the AC50 was 3.6 µM. Turning to `Cc1ccc2nc(C(F)(F)F)c(C#N)c(N)c2c1`, the AC50 is 6.7 µM. The same measure for `COc1ccc2c3c([nH]c2c1)[C@H](CO)N(C(=O)Nc1ccc(F)cc1)CC31CN(Cc2cc(F)ccc2F)C1`: > 20 µM (inactive); for `COCCn1c(C)cc(C(=O)COC(=O)c2ccc(Cl)c(S(N)(=O)=O)c2)c1C`: > 20 µM (inactive); for `C[C@H]1CN([C@@H](C)CO)C(=O)c2c(c3ccccc3n2C)-c2ccccc2CO[C@@H]1CN(C)Cc1cccc(C(F)(F)F)c1`: 2.17 µM.

With `CC(=O)OCC(=O)C1(O)CCC2C3CCC4=CC(=O)CCC4(C)C3(Cl)C(O)CC21C` (stereo unspecified), the AC50 was > 20 µM (inactive). As for `COc1c(-c2coc3cc4c(cc3c2=O)CC(O)C(C)(C)O4)ccc2c1C=CC(C)(C)O2` (stereo unspecified), the AC50 was > 20 µM (inactive). Consider `O=C(c1ccc(Nc2nccc(-c3cc4ccccc4s3)n2)cc1)N1CCC(N2CCCC2)CC1`, for which the AC50 is 1.07 µM and 0.541 µM. The same measure for `Cc1ccc(O)c(N=Nc2ccccc2)n1`: 8.46 µM; for `O=S(c1ccccc1O)S(=O)c1ccccc1O` (stereo unspecified): 4.55 µM; for `COc1ccc(C(=O)CCN2CCc3cc(OC)c(OC)cc3C2)cc1`: 5.82 µM.

In the case of `COc1ccc(CN(CCC(c2ccccc2)c2ccc(OC(C)C)cc2)C(=O)CCl)cc1OC` (stereo unspecified), the AC50 is 1.68 µM. `CCCNC(=O)N1[C@H](C#N)[C@H](c2ccc(C3=CCCCC3)cc2)[C@@H]1CO`: the AC50 is > 20 µM (inactive). Take `C[C@@H]1O[C@@H](O[C@H]2C[C@@H](O)[C@]3(CO)[C@H]4[C@H](O)C[C@]5(C)[C@@H](C6COC(=O)C6)CC[C@]5(O)[C@@H]4CC[C@]3(O)C2)[C@H](O)[C@H](O)[C@H]1O` (stereo partly specified): the AC50 is 2.55 µM. Turning to `Clc1ccc(CSC(Cn2ccnc2)c2ccc(Cl)cc2Cl)cc1` (stereo unspecified), the AC50 was > 20 µM (inactive). As to `Cc1ccc(OC(=O)N(C)C[C@@H]2OCc3ccccc3-c3c(n(C)c4ccccc34)C(=O)N([C@@H](C)CO)C[C@H]2C)cc1`, the AC50 is 7.62 µM. For the compound `O=C(c1nnsc1S(=O)(=O)c1ccc(Cl)cc1)N1CCOCC1`, the AC50 was 2.31 µM.

For the compound `N#C[C@@H]1[C@H](c2ccc(C#Cc3ccccc3F)cc2)[C@@H](CO)N1C(=O)c1cccnc1`, the AC50 was 4.37 µM. The same measure for `COC(=O)C1=C(C(=O)OC)C2OC1c1cc3ccccc3cc12`: 0.738 µM; for `CC1=C(O)C(=O)C=C2C1=CC=C1C2(C)CCC2(C)C3CC(C)(C(=O)O)CCC3(C)CCC12C` (stereo unspecified): 0.888 µM. As for `COc1cc2c(cc1OC)C(=O)C(Br)CC2` (stereo unspecified), the AC50 is 3.76 µM. `CC(=O)Nc1ccc(Sc2ccc([N+](=O)[O-])o2)cc1`: the AC50 is 1.99 µM. `Cc1ccc(OCCn2cnc3c(N)ncnc32)cc1`: the AC50 was 0.649 µM.

For `C[C@@H]1C[C@@H]([C@H](O)CC2CC(=O)NC(=O)C2)C(=O)[C@@H](C)C1`, the AC50 was 0.393 µM. Consider `O=C(C#Cc1ccccc1)c1ccccc1`, for which the AC50 is 6.37 µM. As to `C[C@H]1O[C@@H](O[C@H]2[C@@H](O)C[C@H](O[C@H]3[C@@H](O)C[C@H](O[C@H]4CC[C@]5(C)C6C[C@@H](O)[C@]7(C)[C@@H](C8=CC(=O)OC8)CC[C@]7(O)C6CC[C@@H]5C4)O[C@@H]3C)O[C@@H]2C)C[C@H](O)[C@@H]1O` (stereo partly specified), the AC50 is 2.59 µM.

Regarding `CN(C)c1ccc(C=c2c3cc(O)ccc3n3c2cc(-c2ccccc2)[n+]3C)cc1`, the concentration at half-maximal activity (AC50) was 3.43 µM. Under `c1ccc(-c2nc(-c3ccccn3)no2)cc1` stands 3.98 µM. As for `COc1ccc2c(c1)c1ncn(Cc3ccccn3)c(=O)c1n2C`, the AC50 was > 20 µM (inactive). The same measure for `CCS(=O)(=O)N1Cc2ccccc2CC1C(=O)Nc1nc2ccccc2s1` (stereo unspecified): 10.9 µM; for `Cc1csc(NC(=O)c2ccc(N3CCCC3=O)cc2)n1`: 4.3 µM. Turning to `C[n+]1c(-c2ccccc2)cc2c(=Cc3ccc([N+](=O)[O-])cc3)c3ccccc3n21`, the AC50 was 3.93 µM. `O=C(OC1CCOC1=O)c1ccccc1C(=O)c1ccc(Cl)c([N+](=O)[O-])c1` (stereo unspecified): the AC50 was > 20 µM (inactive). The same measure for `CC(=O)OC(C)(C)/C=C/C(=O)C(C)(O)C1C(O)CC2(C)C3CC=C4C(CC(O)C(=O)C4(C)C)C3(C)C(=O)CC12C` (stereo unspecified): 0.124 µM; for `CN(C)c1ccc(NC(=O)c2cnsn2)cc1`: 6.15 µM. For `N#C[C@@H]1[C@H](c2ccc(C#CC3CCCC3)cc2)[C@@H](CO)N1C(=O)Nc1ccc(F)cc1`, the AC50 is > 20 µM (inactive). For the compound `Cc1ccccc1-c1ccc2c(c1)O[C@@H](CN(C)C(=O)Nc1ccc(C(F)(F)F)cc1)[C@@H](C)CN([C@@H](C)CO)S2(=O)=O`, the AC50 is 10.5 µM.

On to `N#C[C@@H]1[C@H](c2ccc(C#CC3CCCCC3)cc2)[C@@H](CO)N1C(=O)Nc1ccc(F)cc1`, for which the AC50 is 10.4 µM.

For `CC12CCC3C(CCC4(O)CC(O)CCC34C=O)C1(O)CCC2C1=CC(=O)OC1` (stereo unspecified), the AC50 is 3.86 µM. Regarding `N#C[C@@H]1[C@H](c2ccc(C#CC3CCCC3)cc2)[C@H](CO)N1C(=O)Cc1ccccn1`, the AC50 was 9.08 µM.
